From US12383692B2, “Systems and methods for synthesis of nitric oxide” (The General Hospital Corporation, priority 2014, dated 2025)

Experiments:
Assay type in all cases: in vivo
[1] = test system: anesthetized lamb with acute pulmonary hypertension; assay: Continuous NO generation with respiratory system 100 (NO generator 102) in anesthetized lambs with U46619-induced pulmonary hypertension
Source text: (§1) Animal studies were approved by the Institutional Animal Care and Use Committee of Massachusetts General Hospital (Boston, MA). Eight lambs (New England Ovis, Dover, NH) weighing 32±2 kg were studied. General anesthesia was induced with 5% inhaled isoflurane (1-chloro-2,2,2-trifluoroethyldifluromethyl ether, Baxter, Deerfield, IL) in oxygen delivered via a mask and then maintained with 1-4% isoflurane in 50% oxygen during surgery. After tracheal intubation, the lambs were instrumented with indwelling carotid artery pulmonary artery catheters. All hemodynamic measurements were performed in anesthetized lambs ventilated with a mechanical ventilator (model 7200, Puritan Bennett, Pleasanton, CA) at a tidal volume of […] and rate of 12-15 breaths/min.
(§2) To induce pulmonary hypertension, a potent pulmonary vasoconstrictor U46619 (Cayman Chemical, Ann Arbor, MI), the analog of the endoperoxide prostaglandin H2, was infused intravenously at a rate of 0.8-0.9 μg/kg/min to increase pulmonary arterial pressure (PAP) to 30 mmHg. The mean arterial pressure and PAP were continuously monitored using a Gould 6600 amplifier system (Gould Electronics, Inc., Eastlake, OH). Pulmonary capillary wedge pressure, heart rate, and cardiac output were intermittently measured at baseline, during U46619 infusion, and before and after inhalation of NO generated using either the respiratory system 10, the respiratory system 100, or NO delivered and diluted at the same level from a compressed gas cylinder. Cardiac output was assessed by thermal dilution as the average of three measurements after an intravenous bolus injection of 10 mL of ice-cold saline solution. Pulmonary vascular resistance index (PVRI), as well as cardiac index (CI), were calculated using standard formulae. The gas cylinder contained 500 ppm NO diluted in nitrogen.
The respiratory system 100 was tested with an anesthetized lamb as the patient 11. A baseline (BL) was generated then the NO generator 102 of the respiratory system 100 was triggered to continuously spark (i.e., generate NO) after U46619 was administered for 30 minutes. The electrodes 36 were fabricated from iridium-platinum. Once triggered, the controller 33 was configured to spark the electrodes 36 for 4 minutes using the following settings: B=35, N=25, P=240 μs; and H=100 μs, which produced approximately 40 ppm of NO, and then the controller 33 stopped the NO generator 102. The test was performed when 21% oxygen was supplied in the inspiratory line 18, when 50% oxygen was supplied in the inspiratory line 18, and when NO was supplied to the anesthetized lamb diluted from a compressed gas cylinder.
Also, the reduction in PAP and PVRI for the NO produced by the NO generator 102 was similar to the reduction in PAP and PVRI for the NO supplied by the gas cylinder. […]

[2] = test system: anesthetized lamb with acute pulmonary hypertension; assay: Intermittent NO generation with respiratory system 100 (NO generator 102) in anesthetized lambs with U46619-induced pulmonary hypertension; details: 4 minutes
Source text: as §1, §2
The respiratory system 100 was tested with an anesthetized lamb as the patient 11. A baseline (BL) was generated then the NO generator 102 of the respiratory system 100 was triggered to intermittently spark (i.e., generate NO) after U46619 was administered for 30 minutes. The electrodes 36 were fabricated from iridium-platinum. The controller 33 was configured to spark the electrodes 36 only during the first 0.8 seconds of inspiration for 4 minutes using the following settings: B=35, N=25, P=240 μs; and H=100 μs and then the controller 33 stopped the NO generator 102, The test was performed when 21% oxygen was supplied in the inspiratory line 18, when 50% oxygen was supplied in the inspiratory line 18, and when NO was supplied to the anesthetized lamb from a gas cylinder.
Also, the reduction in PAP and PVRI for the NO produced by the NO generator 102 was similar to the reduction in PAP and PVRI for NO supplied and diluted from the compressed gas cylinder. […]

[3] = test system: anesthetized lamb with acute pulmonary hypertension due to U46619 infusion; assay: Continuous NO generation with respiratory system 10 (NO generator 14) in anesthetized lambs with U46619-induced pulmonary hypertension
Source text: as §1, §2
The respiratory system 10 was tested with an anesthetized lamb as the patient 11. A baseline (BL) was generated then the NO generator 14 of the respiratory system 10 was triggered to continuously spark (i.e., generate NO) after […] was administered for 30 minutes. The NO was pumped at 5 L/min into the inspiratory line 18. The electrodes 36 were fabricated from iridium-platinum. Once triggered, the controller 33 was configured to spark the electrodes 36 for 4 minutes using the following settings: B=35, N=25, P=240 μs; and H=100 μs, which produced approximately 40 ppm of NO, and then the controller 33 stopped the NO generator 14. The test was performed when 21% oxygen was supplied to the inlet 24 of the NO generator 14, when 50% oxygen was supplied to the inlet 24 of the NO generator 14, and compared with NO supplied at the same concentration to the anesthetized lamb from a gas cylinder. […]

[4] = NO produced by NO generator 102, continuous sparking, 4 minutes
[5] = inhaled NO approximately 40 ppm continuously produced inline by NO generator 102 for 4 minutes, breathing 21% and 50% oxygen
[6] = NO produced by NO generator 102, intermittent sparking
[7] = NO produced by NO generator 102 only during first 0.8 seconds of inspiration, breathing 21% and 50% oxygen
[8] = NO produced by NO generator 14, continuous sparking, 4 minutes
[9] = inhaled NO approximately 40 ppm continuously produced by NO generator 14 for 4 minutes, breathing 21% and 50% oxygen

SMILES: [N]=O [NO, nitric oxide]
- reduction in PAP compared with NO supplied by the gas cylinder [1, 4]: similar
- reduction in PVRI compared with NO supplied by the gas cylinder [1, 4]: similar
- mean pulmonary artery pressure (PAP) [1, 5]: rapidly reduced
- pulmonary vascular resistance index (PVRI) [1, 5]: rapidly reduced
- reduction in PAP compared with NO supplied and diluted from the compressed gas cylinder [2, 6]: similar
- reduction in PVRI compared with NO supplied and diluted from the compressed gas cylinder [2, 6]: similar
- mean pulmonary artery pressure (PAP) [2, 7]: rapidly reduced
- pulmonary vascular resistance index (PVRI) [2, 7]: rapidly reduced
- reduction in PAP compared with NO supplied at the same level by dilution from the gas cylinder [3, 8]: similar
- reduction in PVRI compared with NO supplied at the same level by dilution from the gas cylinder [3, 8]: similar
- mean pulmonary artery pressure (PAP) [3, 9]: rapidly reduced
- pulmonary vascular resistance index (PVRI) [3, 9]: rapidly reduced
